From patent US20100022526A1, “PYRIDAZINE DERIVATIVES, PROCESSES FOR THEIR PREPARATION AND THEIR USE AS FUNGICIDES” (SYNGENTA CROP PROTECTION, INC., priority 2007, published 2010)

Assays:
[1] = test system: Botrytis cinerea; test: Botrytis cinerea/tomato/preventive (Action against Botrytis on Tomato); type: in vivo; details: preventive spray, tomato plants cv. Roter Gnom, inoculated two days after application, assessed after 3 days, untreated controls infected over 80%, read-out: inhibit fungal infestation
Description: (§1) Botrytis cinerea/tomato/preventive (Action against Botrytis on Tomato) 4 weeks old tomato plants cv. Roter Gnom are treated with the formulated test compound in a spray chamber. Two days after application tomato plants are inoculated by spraying a spore suspension on the test plants. After an incubation period of 3 days at 20° C. and 95% r. h. in a greenhouse the disease incidence is assessed.

[2] = test system: Septoria tritici; test: Sentoria tritici/wheat/Preventive (Action against Septoria Leaf Spot on Wheat); type: in vivo; details: Zymoseptoria tritici, preventive spray, wheat plants cv. Riband, inoculated one day after application, assessed 16-18 days after inoculation, untreated controls infected over 80%, read-out: inhibits fungal infestation
Description: Sentoria tritici/wheat/Preventive (Action against Septoria Leaf Spot on Wheat) 2 weeks old wheat plants cv. Riband are treated with the formulated test compound in a spray chamber. One day after application wheat plants are inoculated by spraying a spore suspension (10^6 conidia/ml) on the test plants. After an incubation period of 1 day at 22° C./21° C. and 95% r. h. plants are kept at 22° C./21° C. and 70% r.h. in a greenhouse. The disease incidence is assessed 16-18 days after inoculation.

[3] = test system: Alternaria solani; test: Alternaria solani/tomato/Preventive (Action against Alternaria on Tomato); type: in vivo; details: preventive spray, tomato plants cv. Roter Gnom, inoculated two days after application, assessed after 4 days, untreated controls infected over 80%, read-out: inhibit fungal infestation
Description: as §1, with “Alternaria solani/tomato/Preventive” for “Botrytis cinerea/tomato/preventive”, “Alternaria” for “Botrytis”, “4” for “3”, “22° C./18°” for “20°”

[4] = test system: Magnaporthe grisea (Pyricularia oryzae); test: whole plant or invertebrate; type: in vivo; details: read-out: inhibit fungal infestation
[5] = test system: Pyrenophora teres (Helminthosporium teres); test: Pyrenophora teres (Helminthosporium teres)/barley/preventive (Action against Net Blotch on Barley); type: in vivo; details: preventive spray, barley plants cv. Regina, inoculated two days after application, assessed after 4 days, untreated controls infected over 80%, read-out: inhibit fungal infestation
Description: Pyrenophora teres (Helminthosporium teres)/barley/preventive (Action against Net Blotch on Barley) 1-week-old barley plants cv. Regina are treated with the formulated test compound in a spray chamber. Two days after application barley plants are inoculated by spraying a spore suspension (2.6×10^4 conidia/ml) on the test plants. After an incubation period of 4 days at 20° C. and 95% r. h. the disease incidence is assessed.

[6] = test system: Puccinia recondita; test: Puccinia recondita/wheat/preventive (Action against Brown Rust on Wheat); type: in vivo; details: preventive spray, wheat plants cv. Arina, inoculated one day after application, assessed 11 days after inoculation, untreated controls infected over 80%, read-out: inhibits fungal infestation
Description: Puccinia recondita/wheat/preventive (Action against Brown Rust on Wheat) 1 week old wheat plants cv. Arina are treated with the formulated test compound in a spray chamber. One day after application wheat plants are inoculated by spraying a spore suspension (1×105 uredospores/ml) on the test plants. After an incubation period of 1 day at 20° C. and 95% r. h. plants are kept for 10 days 20° C./18° C. (day/night) and 60% r.h. in a greenhouse. The disease incidence is assessed 11 days after inoculation.

[7] = test system: Uncinula necator; test: Uncinula necator/grape/preventive (Action against Powdery Mildew on Grape); type: in vivo; details: Erysiphe necator, preventive spray, grape seedlings cv. Gutedel, inoculated one day after application, assessed after 7 days, untreated controls infected over 80%, read-out: inhibit fungal infestation
Description: Uncinula necator/grape/preventive (Action against Powdery Mildew on Grape) 5 weeks old grape seedlings cv. Gutedel are treated with the formulated test compound in a spray chamber. One day after application grape plants are inoculated by shaking plants infected with grape powdery mildew above the test plants. After an incubation period of 7 days at 24° C./22° C. and 70% r. h. under a light regime of 14/10 h (light/dark) the disease incidence is assessed.

Fc1cc(F)c(-c2c(Cl)nnc(Cl)c2-c2cccc(Cl)c2)c(F)c1 [I.b. 198, 3,6-dichloro-4-(3-chloro-phenyl)-5-(2,4,6-trifluoro-phenyl)-pyridazine]
inhibition at 200 ppm [1]: ≥ 80%
inhibition at 200 ppm [2]: ≥ 80%
inhibition at 200 ppm [3]: ≥ 80%
melting point: 138 to 140 °C
inhibition at 200 ppm [4]: ≥ 80%

Fc1cc(F)c(-c2c(Cl)nnc(Cl)c2-c2cccc(Br)c2)c(F)c1 [I.c. 198, 3,6-dichloro-4-(3-bromo-phenyl)-5-(2,4,6-trifluoro-phenyl)-pyridazine]
inhibition at 200 ppm [5]: ≥ 80%
melting point: 120 to 121 °C
inhibition at 200 ppm [6]: ≥ 80%

Cc1cccc(-c2c(Cl)nnc(Cl)c2-c2c(F)cc(F)cc2F)c1 [I.d. 198, 3,6-dichloro-4-m-tolyl-5-(2,4,6-trifluoro-phenyl)-pyridazine]
inhibition at 200 ppm [5]: ≥ 80%
inhibition at 200 ppm [2]: ≥ 80%
melting point: 121 to 123 °C

Oc1nnc(O)c(-c2c(F)cc(F)cc2F)c1-c1cccc(C(F)(F)F)c1 [I.e.196, 4-(3-trifluoromethyl-phenyl)-5-(2,4,6-trifluoro-phenyl)-pyridazine-3,6-diol]
melting point: 259 to 260 °C

Fc1cc(F)c(-c2c(Cl)nnc(Cl)c2-c2cccc(C(F)(F)F)c2)c(F)c1 [I.e. 198, 3,6-dichloro-4-(3-trifluoromethyl-phenyl)-5-(2,4,6-trifluoro-phenyl)-pyridazine]
inhibition at 200 ppm [7]: ≥ 80%
inhibition at 200 ppm [1]: ≥ 80%
melting point: 117 to 119 °C

Fc1ccc(-c2c(F)nnc(F)c2-c2c(F)cc(F)cc2F)cc1 [I.j. 197, 3,6-difluoro-4-(4-fluoro-phenyl)-5-(2,4,6-trifluoro-phenyl)-pyridazine]
inhibition at 200 ppm [1]: ≥ 80%
inhibition at 200 ppm [5]: ≥ 80%
inhibition at 200 ppm [2]: ≥ 80%
inhibition at 200 ppm [3]: ≥ 80%
melting point: 74 to 76 °C
inhibition at 200 ppm [6]: ≥ 80%

Fc1ccc(-c2c(Cl)nnc(Cl)c2-c2c(F)cc(F)cc2F)cc1 [I.j. 198, 3,6-dichloro-4-(4-fluoro-phenyl)-5-(2,4,6-trifluoro-phenyl)-pyridazine]
inhibition at 200 ppm [7]: ≥ 80%
inhibition at 200 ppm [1]: ≥ 80%
inhibition at 200 ppm [5]: ≥ 80%
inhibition at 200 ppm [2]: ≥ 80%
inhibition at 200 ppm [3]: ≥ 80%
melting point: 143 to 145 °C
inhibition at 200 ppm [6]: ≥ 80%
inhibition at 200 ppm [4]: ≥ 80%

COc1nnc(Cl)c(-c2c(F)cc(F)cc2F)c1-c1ccc(F)cc1 [I.j. 199, 3-chloro-5-(4-fluoro-phenyl)-6-methoxy-4-(2,4,6-trifluoro-phenyl)-pyridazine]
inhibition at 200 ppm [7]: ≥ 80%
inhibition at 200 ppm [1]: ≥ 80%
inhibition at 200 ppm [5]: ≥ 80%
inhibition at 200 ppm [2]: ≥ 80%
inhibition at 200 ppm [3]: ≥ 80%
melting point: 146 to 151 °C
inhibition at 200 ppm [4]: ≥ 80%

Oc1nnc(O)c(-c2c(F)cccc2Cl)c1-c1ccc(Cl)cc1 [I.k.076, 4-(4-chloro-phenyl)-5-(2-chloro-6-fluoro-phenyl)-pyridazine-3,6-diol]
melting point: 144 to 149 °C

Fc1cccc(Cl)c1-c1c(Cl)nnc(Cl)c1-c1ccc(Cl)cc1 [I.k.078, 3,6-dichloro-4-(2-chloro-6-fluoro-phenyl)-5-(4-chloro-phenyl)-pyridazine]
melting point: 144 to 145 °C

COc1nnc(Cl)c(-c2c(F)cccc2Cl)c1-c1ccc(Cl)cc1 [I.k.079, 3-chloro-4-(2-chloro-6-fluoro-phenyl)-5-(4-chloro-phenyl)-6-methoxy-pyridazine]
melting point: 137 to 141 °C

Oc1nnc(O)c(-c2c(F)cc(F)cc2F)c1-c1ccc(Cl)cc1 [I.k.196, 4-(4-chloro-phenyl)-5-(2,4,6-trifluoro-phenyl)-pyridazine-3,6-diol]
melting point: 158 to 164 °C

Fc1cc(F)c(-c2c(Cl)nnc(Cl)c2-c2ccc(Cl)cc2)c(F)c1 [I.k. 198, 3,6-dichloro-4-(4-chloro-phenyl)-5-(2,4,6-trifluoro-phenyl)-pyridazine]
inhibition at 200 ppm [7]: ≥ 80%
inhibition at 200 ppm [1]: ≥ 80%
inhibition at 200 ppm [5]: ≥ 80%
inhibition at 200 ppm [2]: ≥ 80%
inhibition at 200 ppm [6]: ≥ 80%
inhibition at 200 ppm [4]: ≥ 80%

O=c1[nH][nH]c(=O)c(-c2c(F)cc(F)cc2F)c1-c1ccc(Br)cc1 [I.l.196, 4-(4-bromophenyl)-5-(2,4,6-trifluorophenyl)-1,2-dihydro-pyridazine-3,6-dione]
melting point: 272 to 274 °C

Fc1cc(F)c(-c2c(F)nnc(F)c2-c2ccc(Br)cc2)c(F)c1 [I.l. 197, 4-(4-bromophenyl)-3,6-difluoro-5-(2,4,6-trifluorophenyl)-pyridazine]
inhibition at 200 ppm [7]: ≥ 80%
inhibition at 200 ppm [5]: ≥ 80%
inhibition at 200 ppm [2]: ≥ 80%
inhibition at 200 ppm [3]: ≥ 80%
melting point: 132 to 133 °C
inhibition at 200 ppm [6]: ≥ 80%
inhibition at 200 ppm [4]: ≥ 80%

Fc1cc(F)c(-c2c(Cl)nnc(Cl)c2-c2ccc(Br)cc2)c(F)c1 [I.l. 198, 4-(4-bromophenyl)-3,6-dichloro-5-(2,4,6-trifluorophenyl)-pyridazine]
inhibition at 200 ppm [1]: ≥ 80%
inhibition at 200 ppm [5]: ≥ 80%
inhibition at 200 ppm [2]: ≥ 80%
inhibition at 200 ppm [3]: ≥ 80%
melting point: 134 to 137 °C
inhibition at 200 ppm [6]: ≥ 80%
inhibition at 200 ppm [4]: ≥ 80%

Cc1ccc(-c2c(Cl)nnc(Cl)c2-c2c(F)cc(F)cc2F)cc1 [I.m. 198, 3,6-dichloro-4-p-tolyl-5-(2,4,6-trifluoro-phenyl)-pyridazine]
inhibition at 200 ppm [7]: ≥ 80%
inhibition at 200 ppm [1]: ≥ 80%
inhibition at 200 ppm [5]: ≥ 80%
inhibition at 200 ppm [2]: ≥ 80%
inhibition at 200 ppm [3]: ≥ 80%
inhibition at 200 ppm [6]: ≥ 80%

COc1nnc(Cl)c(-c2c(F)cc(F)cc2F)c1-c1ccc(C)cc1 [I.m. 199, 3-chloro-6-methoxy-5-p-tolyl-4-(2,4,6-trifluoro-phenyl)-pyridazine]
inhibition at 200 ppm [2]: ≥ 80%
melting point: 126 to 128 °C
inhibition at 200 ppm [6]: ≥ 80%

CCc1ccc(-c2c(O)nnc(O)c2-c2c(F)cc(F)cc2F)cc1 [I.o.196, 4-(4-ethyl-phenyl)-5-(2,4,6-trifluoro-phenyl)-pyridazine-3,6-diol]
melting point: 278 to 289 °C

CCc1ccc(-c2c(OC)nnc(Cl)c2-c2c(F)cc(F)cc2F)cc1 [I.o. 199, 3-chloro-5-(4-ethyl-phenyl)-6-methoxy-4-(2,4,6-trifluoro-phenyl)-pyridazine]
inhibition at 200 ppm [7]: ≥ 80%
inhibition at 200 ppm [2]: ≥ 80%
inhibition at 200 ppm [3]: ≥ 80%
melting point: 109 to 112 °C
inhibition at 200 ppm [6]: ≥ 80%
inhibition at 200 ppm [4]: ≥ 80%

COc1ccc(-c2c(O)nnc(O)c2-c2c(F)cc(F)cc2F)cc1 [I.p.196, 4-(4-methoxy-phenyl)-5-(2,4,6-trifluoro-phenyl)-pyridazine-3,6-diol]
melting point: 287 to 294 °C

COc1ccc(-c2c(Cl)nnc(Cl)c2-c2c(F)cc(F)cc2F)cc1 [I.p. 198, 3,6-dichloro-4-(4-methoxy-phenyl)-5-(2,4,6-trifluoro-phenyl)-pyridazine]
inhibition at 200 ppm [7]: ≥ 80%
inhibition at 200 ppm [1]: ≥ 80%
inhibition at 200 ppm [2]: ≥ 80%
inhibition at 200 ppm [3]: ≥ 80%
melting point: 106 to 109 °C
inhibition at 200 ppm [4]: ≥ 80%

Fc1cc(F)c(-c2c(Cl)nnc(Cl)c2-c2ccc(Cl)c(Cl)c2)c(F)c1 [I.v. 198, 3,6-dichloro-4-(3,4-dichloro-phenyl)-5-(2,4,6-trifluoro-phenyl)-pyridazine]
inhibition at 200 ppm [1]: ≥ 80%
inhibition at 200 ppm [5]: ≥ 80%
inhibition at 200 ppm [2]: ≥ 80%
inhibition at 200 ppm [3]: ≥ 80%
melting point: 139 to 140 °C
